From paper PMC10492782, “Exploiting the aggregation propensity of beta-lactamases to design inhibitors that induce enzyme misfolding” (Nature Communications, 2023)
“And” between values parts separate entries of the source, which are not always exact repeats. Equal entries are not always repeated. Structures can show the parent of a compound that is named as a salt.

Tests used:
[1] = tested on: uro-pathogenic E. coli strain (UPEC strain blaTEM-1); assay: MIC of ampicillin with or without 32 µg/mL TEM3.2 or tazobactam; type: cell-based, Escherichia coli; conditions: 32 μg/mL of either TEM3.2 or tazobactam
Experimental: (§1) We also performed a tolerability study using a dose escalation method by administering the peptide at 2, 5, 10, 15, and 20 mg/kg via different parenteral routes: intravenous (IV), intraperitoneal (IP), and subcutaneous (SC) in female C57BL/6JAX mice, aged 8–10 weeks (Suppl Table 4). […] Vehicle alone (0.9% NaCl) was also administered (IV). After 24 h the animals were sacrificed and the bacterial load in the bladder, kidney, and ureter was quantified by determining the number of colony-forming units (CFU) per mL of tissue extract (Fig. 7E–G).
Determination of MIC values was performed using the broth microdilution method according to the EUCAST guideline, which was performed in 96-well polystyrene flat-bottom microtiter plates (BD Biosciences). Briefly, a single colony was inoculated into 5 mL Difco™ Mueller–Hinton Broth (BD Biosciences Ref 275730) and grown to the end-exponential growth phase in a shaking incubator at 37 °C. Cultures were subsequently diluted to a MacFarland (0.5 optical density) to reach 10^6 CFU/mL in fresh MHB medium. 50 µl of different concentrations of peptides ranging from 128 to 2 µg/mL were serially diluted to the sterile 96-well plate in MHB. 50 µL of the diluted bacteria in MHB were next pipetted into 96-well plates to reach the final volume of 100 µL. The bacteria grown with the maximum concentration of carrier and medium were considered positive and negative controls, respectively. The plates were statically incubated overnight at 37 °C to allow bacterial growth. OD was measured at 590 nm using a multipurpose ultraviolet–visible plate reader, and the absorbance of the bacterial growth was measured using an absorbance reader.

[2] = tested on: uro-pathogenic E. coli strain (UPEC strain blaTEM-1); assay: Urinary tract infection model, bacterial load in bladder, kidney, ureter; type: in vivo, female C57BL/6JAX mice; parameters: bacterial load, Ureters / bacterial load, Bladder / bacterial load, Kindey: unit: CFU per mL of tissue extract
Experimental: Fig. 7 Evaluation of in vivo use of peptides that induce the aggregation of TEM beta-lactamase. A Lysis of human erythrocytes (hemolysis) was assessed in the presence of the indicated concentrations of TEM3.2 for 2 h at 37 °C, and normalized to the value obtained with 1% of the detergent triton. […] B Cell viability using the CellTiter Blue assay of HeLa cells treated for 24 h with the indicated concentrations TEM 3.2 at 37 °C. […] DAPI (4’,6-diamidino-2-phenylindole) is blue, while CellMask is red. D Experimental workflow of the in vivo model used in this study. E–G Bacterial load of indicated organs of female C57BL/6JAX mice with a urinary tract infection with E. coli strain UZ_TEM104, treated with 30 mg/kg penicillin (oral) as well 10 mg/kg tazobactam (oral) or 10 mg/kg TEM3.2 via the indicated treatment route. IV intravenous, IP intraperitoneal, SC subcutaneously. The data shown is from a single experiment with 12 animals for each group. The result for each animal is shown as a dot. […] The statistically significant differences were determined using ANOVA, followed by Dunnett’s multiple comparison test. […] Source data are provided as a Source Data file.
as §1
To test the efficacy of the peptides, a urinary tract infection model was performed as described previously. Briefly, female C57BL/6Jax mice female mice were deprived of water for at least 1 h. Then, they were anesthetized by IP administration of the mixture of ketamine (Nimatek)/xylazine (XYL-M 2% BE-V170581). The bladder of the mouse was massaged with fingers and pushed down gently to expel the remaining urine. Mice were slowly inoculated urethrally with 50 µL of a bacterial suspension slowly over 5 s to avoid vesicoureteral reflux (10^8 CFU/ mouse) using a sterile catheter (pediatric intravenous-access cannula (GS391350)). The catheter was removed directly after inoculation. After surgery, the animals were visually monitored for full recovery. After 1 h post inoculation, all mice received Ampicillin (30 mg/kg_PO-orally) and at the same time 3 groups of animals received the peptides via different administration routes (10 mg/kg_IV—intravenous; IP—intraperitoneal or SC—sub-cutaneous) and the positive control groups received tazobactam (10 mg/kg, PO). The negative control groups received vehicle or saline (IV administration). 2 h post inoculation, all mice received a second injection with the same concentration of each treatment as explained above. Twenty-four hours post-infection, mice were sacrificed and organs (kidney, bladder, ureter) were washed with PBS and were homogenized (Thermo Savant FastPrep FP120 Homogenizer/24 s). The homogenized tissues were serially diluted and cultured on blood agar plates. The plates were incubated overnight at 37 °C, and the number of bacteria was measured by CFU value.

[3] = tested on: E. coli strain UZ_TEM104; assay: microbe, parasite or virus in culture; type: cell-based, Escherichia coli
[4] = biological target: T1, SHV-11 (Klebsiella pneumoniae, UniProt P0AD64, L31Q); assay: Thermal denaturation, Right-Angle Light Scattering (aggregation); type: biochemical; conditions: excess of tazobactam; less marked than for TEM-1
T1 construct: His-tag (N); TEV cleavage site (N); made in house; host or cells: E. coli BL21 (DE3)

[5] = biological target: T2, TEM-1 (Escherichia coli, UniProt P62593); type: biochemical, E. coli; parameters: His-tag (N); TEV cleavage site (N); made in house; host or cells: E. coli BL21 (DE3)
Excerpt: Then, we performed a thermal denaturation whilst simultaneously monitoring the intrinsic fluorescence as a measure of the folding status of the molecule (Fig. 1D and Supplementary Fig. 2D) and the static light scattering as a measure of aggregation (Fig. 1E and Supplementary Fig. 2E).
D Heat denaturation of TEM-1 monitored by intrinsic fluorescence plotted as the BaryCentric Mean (BCM) of the fluorescence emission spectrum in the presence (red) and absence (blue) of tazobactam. […] E Temperature-dependent evolution of the Right-Angle Light Scattering (RALS) intensity measured simultaneously with the data in D to monitor protein aggregation. […] F Same data as in E, but showing a dose-titration of the beta-lactamase inhibitor tazobactam.

[6] = biological target: T2, TEM-1; type: biochemical
Excerpt: To satisfy the reviewer’s comment, we have performed urea denaturation in the presence
of a molar excess of tazobactam and compared it to the condition without.
two-state denaturation of the protein with a stable intermediate. The difference between
The plots show a single repeat.
Table 1: Results from fitting 3 replicates
G1 (kcal/mol) G2 (kcal/mol) Sum

[7] = group Tazo, each column one mouse

T2 sequence (P62593 24-286 limits assumed): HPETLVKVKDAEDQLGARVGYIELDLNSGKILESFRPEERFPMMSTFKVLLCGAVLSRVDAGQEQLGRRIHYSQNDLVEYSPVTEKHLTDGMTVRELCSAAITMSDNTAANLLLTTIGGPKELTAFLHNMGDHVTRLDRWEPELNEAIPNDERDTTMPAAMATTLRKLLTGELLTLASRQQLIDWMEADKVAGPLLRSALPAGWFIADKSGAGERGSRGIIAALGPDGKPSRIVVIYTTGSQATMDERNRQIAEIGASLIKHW
T1 sequence (P0AD64 22-286 L31Q): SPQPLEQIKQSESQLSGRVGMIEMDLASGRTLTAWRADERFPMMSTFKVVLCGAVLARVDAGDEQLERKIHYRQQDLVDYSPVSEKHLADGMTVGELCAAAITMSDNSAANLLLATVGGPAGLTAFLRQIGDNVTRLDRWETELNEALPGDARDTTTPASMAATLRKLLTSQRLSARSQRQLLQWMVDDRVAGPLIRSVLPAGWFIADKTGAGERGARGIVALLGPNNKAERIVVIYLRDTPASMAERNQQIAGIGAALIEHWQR

## C[C@]1(Cn2ccnn2)[C@H](C(=O)O)N2C(=O)C[C@H]2S1(=O)=O [Tazobactam, tazobactam sodium salt]
[1]
  MIC Ampicillin in the presence of additive: 25 µg/mL
[2]; 10 mg/kg plus 30 mg/kg Ampicillin orally at 60 and 120 min post-infection, CFU at 24 h, most robust in kidney and ureter
  best reduction of the bacterial load: 1.8 log folds
[2]; [7]
  bacterial load, Bladder: 26566.7 and 152667 and 97400 and 1 and 3700 and 1433.33 and 3000 and 1800 and 1966.67 and 316733 and 4266.67 and 3266.67
  bacterial load, Kindey: 24000 and 134000 and 72733.3 and 633.333 and 1 (3×) and 10200 and 2066.67 and 17700 and 9833.33 and 4600
  bacterial load, Ureters: 2433.33 and 54400 and 33133.3 and 133.333 and 166.667 and 1 (2×) and 1000 and 800 and 11633.3 and 1900 and 1166.67
[3]; E. coli UZ_TEM104, concentration of additive 50 (mg/mL [sic])
  MIC penicillin: 400000 µg/mL
[3]; additive at 50 μg/mL
  fold reduction of the MIC of penicillin G: 4 fold
[3]; in the presence of additive (peptide or tazobactam) at fixed 50 μg/mL
  MIC penicillin: 400 µg/mL
[4]
  effect on aggregation of SHV-11 during thermal denaturation (in words): a decrease in the aggregation of the protein
[5]; excess of tazobactam, more marked for TEM-1 than SHV-11
  effect on aggregation of TEM-1 during thermal denaturation (in words): a decrease in the aggregation of the protein
[5]; static light scattering during temperature ramp, inhibitor titration
  effect on aggregation of TEM-1, dose-response (in words): reduce the aggregation of the enzyme in a dose-responsive manner
[6]; G1 + G2, with molar excess of tazobactam (no tazo 10.40)
  Sum: 10.28 kcal/mol
[6]; urea denaturation of TEM-1 with molar excess of tazobactam, 3-state fit, 3 replicates (no tazo 5.00)
  G2: 4.03 kcal/mol
[6]; urea denaturation of TEM-1 with molar excess of tazobactam, 3-state fit, 3 replicates (no tazo 5.40)
  G1: 6.25 kcal/mol
